Results as given in ChEMBL document CHEMBL5113529, “Design, Synthesis, and Biological Evaluation of Dual-Target COX-2/CYP51 Inhibitors for the Treatment of Fungal Infectious Diseases” (J Med Chem, 2022).
Calls of active or inactive are those of the source. No cut-off for these calls is given here.

What was measured:
[1] = Toxicity in mouse infected with Candida albicans assessed as heart injury at 10 ug per 20 g, ip administered on day 2, 4, 6, 8, 10 and 12 and measured on day 14 by H and E staining based assay; format: organism-based; settings: in vivo, 336 h, dose 10 µg, time 14 day
Candida albicans [2] = experiment: Antifungal activity against fluconazole- resistant Candida albicans 901 assessed as fungal growth inhibition measured after 72 hrs in presence of naproxen by double dilution method; format: functional
Candida albicans [3] = experiment: Antifungal activity against Candida albicans ATCC SC5314 assessed as fungal growth inhibition measured after 72 hrs in presence of naproxen by double dilution method; format: functional
Mus musculus [4] = species: Mus musculus; experiment: Antiinflammatory activity in mouse infected with Candida albicans ATCC SC5314 assessed as reduction in MMP-9 expression in spleen in presence of naproxen by hematoxylin staining based inverted microscopic analysis; format: functional
Candida albicans [5] = experiment: Antifungal activity against fluconazole- resistant Candida albicans 632 assessed as fungal growth inhibition measured after 72 hrs in presence of naproxen by double dilution method; format: functional
Mus musculus [6] = species: Mus musculus; experiment: Antiinflammatory activity against mouse infected with Candida albicans ATCC SC5314 assessed as reduction in COX-2 expression in spleen in presence of naproxen by Western blot analysis; format: functional; parameters: scale not given: the % may be the effect or the level left
[7] = Toxicity in mouse infected with Candida albicans assessed as lung injury at 10 ug per 20 g, ip administered on day 2, 4, 6, 8, 10 and 12 and measured on day 14 by H and E staining based assay; format: organism-based; settings: in vivo, 336 h, dose 10 µg, time 14 day
[8] = Toxicity in Candida albicans ATCC SC5314 infected-mouse assessed as effect on body weight at 10 ug per 20 g, ip administered on day 2, 4, 6, 8, 10 and 12 and measured on day 14 in presence of naproxen; format: organism-based; settings: in vivo, 336 h, dose 10 µg, time 14 day
Aspergillus fumigatus = experiment: Antifungal activity against Aspergillus fumigatus KM8001 assessed as fungal growth inhibition measured after 72 hrs in presence of naproxen by double dilution method; format: functional
Mus musculus [9] = species: Mus musculus; experiment: Immunostimulatory activity in mouse infected with Candida albicans ATCC SC5314 assessed as increase in CD3+ expression level in spleen in presence of naproxen by immunohistochemical analysis; format: functional, organism-based
Candida albicans [10] = experiment: Antifungal actvity against Candida albicans ATCC SC5314 infected in mouse assessed as reduction in infection at 10 ug per 20 g, ip administered on day 2, 4, 6, 8, 10 and 12 and measured on day 14 in presence of naproxen; format: functional, organism-based; settings: time 14.0 day
[11] = Toxicity in mouse infected with Candida albicans assessed as kidney injury at 10 ug per 20 g, ip administered on day 2, 4, 6, 8, 10 and 12 and measured on day 14 by H and E staining based assay; format: organism-based; settings: in vivo, 336 h, dose 10 µg, time 14 day
[12] = Toxicity in mouse infected with Candida albicans assessed as BUN level in plasma at 10 ug per 20 g, ip administered on day 2, 4, 6, 8, 10 and 12 and measured on day 14 in presence of naproxen (reference value: 8.2 +/- 0.5 mmol/L); format: organism-based; settings: in vivo, 336 h, dose 10 µg, time 14 day
Pichia kudriavzevii = experiment: Antifungal activity against Candida krusei ATCC 6258 assessed as fungal growth inhibition measured after 72 hrs in presence of naproxen by double dilution method; format: functional
Mus musculus [13] = species: Mus musculus; experiment: Immunostimulatory activity in mouse infected with Candida albicans ATCC SC5314 assessed as reduction in PD-L1 expression in spleen in presence of naproxen by western blot analysis relative to control; format: functional; parameters: scale not given: the % may be the effect or the level left
Candida albicans [14] = experiment: Antifungal actvity against Candida albicans ATCC SC5314 infected in mouse assessed as reduction in infection at 10 ug per 20 g, ip administered on day 2, 4, 6, 8, 10 and 12 and measured on day 14; format: functional, organism-based; settings: time 14.0 day
Mus musculus [15] = species: Mus musculus; experiment: Antiinflammatory activity in mouse infected with Candida albicans ATCC SC5314 assessed as reduction in COX-2 expression in spleen in presence of naproxen by hematoxylin staining based inverted microscopic analysis; format: functional
[16] = Toxicity in Candida albicans ATCC SC5314 infected-mouse assessed as effect on body weight at 10 ug per 20 g, ip administered on day 2, 4, 6, 8, 10 and 12 and measured on day 14; format: organism-based; settings: in vivo, 336 h, dose 10 µg, time 14 day
Mus musculus [17] = species: Mus musculus; experiment: Antiinflammatory activity against mouse infected with Candida albicans ATCC SC5314 assessed as reduction in MMP-9 expression in spleen by Western blot analysis; format: functional, organism-based
Mus musculus [18] = species: Mus musculus; experiment: Antiinflammatory activity in mouse infected with Candida albicans ATCC SC5314 assessed as reduction in COX-2 expression in spleen by hematoxylin staining based inverted microscopic analysis (reference value: 83.52 a.u.); format: functional
[19] = target: T1, Prostaglandin G/H synthase 2 (Homo sapiens, UniProt P35354); experiment: Inhibition of COX-2 (unknown origin) using arachidonic acid as substrate preincubated for 10 mins followed by substrate addition and measured after 2 mins by immunoassay
T1 sequence (P35354 whole entry): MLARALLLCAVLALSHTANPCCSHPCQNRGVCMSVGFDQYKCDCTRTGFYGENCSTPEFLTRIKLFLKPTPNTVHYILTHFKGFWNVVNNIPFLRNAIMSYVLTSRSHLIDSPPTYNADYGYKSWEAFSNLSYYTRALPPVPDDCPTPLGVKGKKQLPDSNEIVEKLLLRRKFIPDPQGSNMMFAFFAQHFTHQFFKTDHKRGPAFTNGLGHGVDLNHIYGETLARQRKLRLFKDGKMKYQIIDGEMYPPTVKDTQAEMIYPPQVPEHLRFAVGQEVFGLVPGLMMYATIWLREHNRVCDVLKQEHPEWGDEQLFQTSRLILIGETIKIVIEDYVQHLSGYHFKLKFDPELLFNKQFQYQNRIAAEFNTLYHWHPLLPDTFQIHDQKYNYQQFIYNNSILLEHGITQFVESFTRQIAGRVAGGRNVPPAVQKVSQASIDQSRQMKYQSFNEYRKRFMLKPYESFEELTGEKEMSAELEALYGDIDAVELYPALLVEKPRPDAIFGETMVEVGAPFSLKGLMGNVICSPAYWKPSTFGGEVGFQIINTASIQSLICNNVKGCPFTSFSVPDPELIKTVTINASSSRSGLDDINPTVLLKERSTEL

Mus musculus [20] = species: Mus musculus; experiment: Antiinflammatory activity in mouse infected with Candida albicans ATCC SC5314 assessed as reduction in MMP-9 expression in spleen by hematoxylin staining based inverted microscopic analysis (reference value: 36.74 a.u.); format: functional
Mus musculus [21] = species: Mus musculus; experiment: Antiinflammatory activity against mouse infected with Candida albicans ATCC SC5314 assessed as reduction in NLRP3 expression in spleen by Western blot analysis; format: functional, organism-based
[22] = target: Prostaglandin G/H synthase 1 (Homo sapiens, UniProt P23219); experiment: Inhibition of COX-1 (unknown origin) using arachidonic acid as substrate preincubated for 10 mins followed by substrate addition and measured after 2 mins by immunoassay
Candida albicans [23] = experiment: Antifungal actvity against Candida albicans ATCC SC5314 infected in mouse assessed as shrinking of infection region at 10 ug per 20 g, ip administered on day 2, 4, 6, 8, 10 and 12 and measured on day 14; format: functional, organism-based; settings: dose 10.0 µg, time 14.0 day
Candida albicans [24] = experiment: Induction of morphological changes in Candida albicans ATCC SC5314 assessed as cell leakage measured for 96 hrs by transmission electron microscopic analysis; format: functional, organism-based
Candida albicans [25] = experiment: Induction of morphological changes in Candida albicans ATCC SC5314 assessed as ribosome abscission measured for 48 to 72 hrs by transmission electron microscopic analysis; format: functional, organism-based; settings: time 48-72 hrs

Chain of Prostaglandin G/H synthase 1 (P23219 whole entry): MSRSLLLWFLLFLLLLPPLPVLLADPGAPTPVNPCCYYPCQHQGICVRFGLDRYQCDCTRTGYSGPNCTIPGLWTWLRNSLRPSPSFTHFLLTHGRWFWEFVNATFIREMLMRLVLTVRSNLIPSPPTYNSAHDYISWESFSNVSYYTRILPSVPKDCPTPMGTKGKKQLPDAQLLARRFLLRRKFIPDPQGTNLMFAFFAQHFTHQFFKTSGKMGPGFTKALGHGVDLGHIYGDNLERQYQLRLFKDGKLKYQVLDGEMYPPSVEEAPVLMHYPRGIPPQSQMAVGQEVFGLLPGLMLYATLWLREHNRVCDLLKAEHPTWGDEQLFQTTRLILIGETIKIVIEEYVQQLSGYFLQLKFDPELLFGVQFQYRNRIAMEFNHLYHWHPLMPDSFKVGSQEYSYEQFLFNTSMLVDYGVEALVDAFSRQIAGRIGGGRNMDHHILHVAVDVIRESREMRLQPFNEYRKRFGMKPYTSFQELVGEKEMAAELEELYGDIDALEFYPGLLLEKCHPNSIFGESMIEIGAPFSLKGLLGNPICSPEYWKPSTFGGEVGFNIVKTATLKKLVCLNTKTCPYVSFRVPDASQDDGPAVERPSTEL

Compound	Activity [1]	Activity [7]	Activity [11]	Activity (Candida albicans [14])	Activity [16]	Activity (Mus musculus [17])	Activity (Mus musculus [18]) [a.u.]	IC50 [19] [µM]	Activity (Mus musculus [20]) [a.u.]	Activity (Mus musculus [21])	IC50 [22] [µM]	Activity (Candida albicans [23])	further results
OC(Cn1cncn1)(Cn1cncn1)c1ccc(F)cc1F [FLUCONAZOLE]	Non-Toxic	Non-Toxic	Non-Toxic	Active									MIC50 (Candida albicans [2]): 4 µg/mL; MIC50 (Candida albicans [3]): 0.25 µg/mL; Activity (Mus musculus [4]): 26.05 a.u.; MIC50 (Candida albicans [5]): 4 µg/mL; Activity (Mus musculus [6]): 39.43%; Activity [8]: Non-Toxic; MIC50 (Aspergillus fumigatus): 4 µg/mL; Activity (Mus musculus [9]): Active; Activity (Candida albicans [10]): Active; Activity [12]: 9.5 IU/L; MIC50 (Pichia kudriavzevii): 1 µg/mL; Activity (Mus musculus [13]): 14.27%; Activity (Mus musculus [15]): 55.7 a.u.
CC(C)NC(=O)[C@@H](Cn1ccnc1)NC(=O)[C@@H](C)c1cccc(C(=O)c2ccccc2)c1					Non-Toxic	Active	20.15	3.02	12.13	Active	> 50	Active	
COc1ccc2cc([C@H](C)C(=O)NC(Cn3cncn3)C(=O)c3ccccc3)ccc2c1 (some centres undefined)	Non-Toxic	Non-Toxic	Non-Toxic	Active	Non-Toxic	Active	20.15	1.96	12.13	Active	> 50	Active	Activity (Candida albicans [24]): Active; Activity (Candida albicans [25]): Active
